Measurements: paper PMC7617869, “Molecular glues that inhibit deubiquitylase activity and inflammatory signaling” (Nature Structural & Molecular Biology, 2025)
Several values for one entry are separate records, joined by “and”; a condition that tells them apart may be missing. Equal entries are not always repeated.

Key:
[1] = system: IFNAR1 cell surface levels in sgROSA MCF10A cells; assay: MCF10A sgROSA IFNAR1 cell surface levels (FACS); type: cell-based, human
Protocol: To study the direct effect of BRISC DUB inhibitors, IFNAR1 surface levels were measured using flow cytometry (FACS) analysis. For this purpose, MCF10A WT and MCF10A BRCC45 KO cells expressing […]
BRCC45 WT or BRCC45 R137A were used. […]
minutes prior to the addition of 50 ng/mL of hIFN-Iα for various time points (45 minutes and 90 minutes).
After IFN treatment, cells were dissociated from plate using cell dissociation Buffer (ThermoFisher Scientific, #13150016) and were stained with LIVE/DEAD™ Fixable Violet Dead Cell Stain Kit, for 405 nm excitation (ThermoFisher Scientific, #L34963) for 30 minutes, as per the kit protocol. The cells were then washed using FACS buffer (DPBS, 1% BSA, 2 mM EDTA, 0.09% sodium azide) and transferred to 96-well round bottom plates. Resuspended cells were divided into three repeats for each sample, each was surface stained for 1 hour at 4 °C with: 1. Human IFN-alpha/beta R1 Antibody (R&D systems, #MAB245), 2. Mouse IgG1 Isotype Control (R&D systems, #MAB002), 3. FACS buffer (control cells).
Following incubation, cells were washed once with FACS buffer and were labelled for 30 minutes at 4 °C with either Biotin-SP-conjugated AffiniPure Donkey Anti-Mouse IgG (H+L) (Jackson Immunoresearch Laboratories) for samples 1 and 2 or with FACS buffer for sample 3. Cells were washed twice with FACS buffer and were labelled for 15 minutes at 4 °C with either R-Phycoerythrin-conjugated Streptavidin (Jackson Immunoresearch Laboratories) for samples 1 and 2 or with FACS buffer for sample 3. Cells were washed 3 times with FACS buffer and were analysed by FACS (MACSQuant, Miltenyi Biotec). For each sample from group 1 the Geo mean fluorescence intensity (MFI) of its isotype sample was reduced. IFNAR1 cell surface percentage was calculated by 100*(MFI

[2] = system: ISG expression in SSc PBMCs; assay: SSc PBMC type I IFN signaling gene expression array, unstimulated; type: cell-based, human
Protocol: PBMCs in vitro experiments
Peripheral blood mononuclear cells (PBMCs) from healthy and SSc donors were separated using density gradient method (Leucosep™, Greiner Bio-One International) from EDTA anticoagulated peripheral blood; isolated cells were washed twice by PBS. PBMCs were then incubated in RPMI1640 […]
For healthy PBMCs, cells were stimulated with 20 ng/mL of IFN (+/- compounds or DMSO). For SSc PBMCs, cells were in basal conditions with no additional IFN stimulation. Cells were centrifuged at 300 g for 10 minutes. […]
RNA was extracted from cell pellets using TRIzol™ (ThermoFisher
Scientific, Waltham, MA) and processed using Quick-RNA Miniprep Kit (Zymo Research) as per the manufacturer’s instruction.
For Type I IFN signalling analysis, the human IFN I RT2 Profiler PCR Array (Qiagen, PAMM-016ZE) was performed on available RNA from healthy (n=3) and SSc (n=9) donors. RNA was converted to cDNA using RT2 First Strand Kit (Qiagen). Next, the cDNA was mixed with RT2 SYBR Green Mastermix (Qiagen, Venlo). Successful PCR performance was confirmed by assay tests for genomic DNA contamination, RNA sample quality, as well as single melt curve determination and <35 Ct for each gene, leading to validated gene expression of 67 genes. Relative expression for each gene was determined, firstly by ∆CT calculated using the geometric mean of 4 housekeeping genes (ACTB, GAPDH, HPRT1, RPLP0), followed by 2^(-∆CT), and expressed as fold change to control, according to manufacturer’s guidance. IFN2α-induced ISGs in healthy donors were determined using a Student’s t-test (two-tail distribution and equal variances) on the triplicate fold change in 2^(-ΔCT) values between […]
donors). Heatmaps were generated using the “pheatmap” function in R (v4.0.2) and RStudio (v1.3.1093) applying row scaling to standardise the expression data across samples (R core team 2020.
R Foundation for Statistical Computing). The IFN2α inducible genes determined in healthy donors […]
171-C. To account for Type I IFN signalling heterogeneity across samples, the mean 2^(-∆CT) for each […]
relative gene expression, illustrated as a fold change and visualised in log2. The Type I IFN signalling array data for the patient samples is included in Source Data Figure 6, Extended Data Fig. 9.

[3] = unstimulated PBMCs from SSc patients, one value per patient (P1-P9)

O=C(NC1C2CNCC21)c1nn(C(=O)c2c(Cl)cccc2Cl)cc1NC(=O)c1c(Cl)cccc1Cl (stereo not shown) [FX-171-C]
IFNAR1 cell surface levels ([1]; IFN + compound, three replicates): 42.0302 and 41.4187 and 41.1741 | IFNAR1 cell surface levels ([1]; sgROSA cells, IFN 50 ng/ml, 5 μM, 90 min): reduction in IFNAR1 cell surface levels | ISG expression (in words) ([2]; SSc PBMCs (n = 9), 2 µM, 16 h, compared to AP-5-145): lesser effect | ADAR, Type I IFN signalling array raw data [2, 3]: 3.858 and 4.274 and 4.001 and 4.68 and 4.777 and 4.208 and 3.331 and 4.913 and 3.918 | BST2, Type I IFN signalling array raw data [2, 3]: 3.573 and 2.8591 and 2.177 and 3.614 and 3.672 and 2.327 and 3.468 and 1.591 and 2.873 | CASP1, Type I IFN signalling array raw data [2, 3]: 2.548 and 2.002 and 1.941 and 1.134 and 2.888 and 1.296 and 2.046 and 2.574 and 1.867 | CD86, Type I IFN signalling array raw data [2, 3]: 6.165 and 2.65 and 5.65 and 3.485 and 4.729 and 3.419 and 6.169 and 4.499 and 4.78 | CXCL10, Type I IFN signalling array raw data [2, 3]: 5.471 and 2.917 and 2.582 and 4.742 and 4.877 and 6.905 and 4.483 and 4.8707 and 3.923 | DDX58, Type I IFN signalling array raw data [2, 3]: 3.35 and 3.309 and 2.1354 and 2.913 and 3.785 and 3.502 and 1.974 and 1.829 and 2.968 | GBP1, Type I IFN signalling array raw data [2, 3]: 2.688 and 1.367 and 1.422 and 2.895 and 1.583 and 2.086 and 0.7206 and 2.179 and 0.5673 | IFI6, Type I IFN signalling array raw data [2, 3]: 3.893 and 2.681 and 0.9581 and 2.49 and 3.897 and 2.026 and 3.3942 and 1.435 and 1.657 | IFI16, Type I IFN signalling array raw data [2, 3]: 1.765 and 1.775 and 1.077 and 1.992 and 2.377 and 1.622 and 1.064 and 1.533 and 1.821 | IFIH1, Type I IFN signalling array raw data [2, 3]: 4.423 and 3.6 and 2.511 and 3.468 and 5.097 and 3.98 and 3.849 and 3.949 and 3.417 | IFIT1, Type I IFN signalling array raw data [2, 3]: 4.29 and 4.385 and 1.626 and 3.83 and 6.5533 and 6.518 and 4.252 and 2.844 and 3.475 | IFIT2, Type I IFN signalling array raw data [2, 3]: 4.664 and 3.908 and 1.678 and 5.248 and 5.235 and 3.764 and 3.486 and 3.028 and 3.269 | IFIT3, Type I IFN signalling array raw data [2, 3]: 3.799 and 3.675 and 1.209 and 4.928 and 5.414 and 5.436 and 3.503 and 5.877 and 2.486 | IFITM1, Type I IFN signalling array raw data [2, 3]: 0.9488 and 1.1781 and 0.3954 and 0.8994 and 1.9714 and 0.8768 and 1.144 and 1.6293 and 0.7125 | IFITM2, Type I IFN signalling array raw data [2, 3]: 4.648 and 5.173 and 4.79 and 4.974 and 4.481 and 3.9861 and 4.845 and 5.367 and 4.762 | IFITM3, Type I IFN signalling array raw data [2, 3]: 3.968 and 3.916 and 1.59 and 3.568 and 4.151 and 2.877 and 3.902 and 1.131 and 2.5357 | IRF1, Type I IFN signalling array raw data [2, 3]: 2.547 and 1.821 and 1.073 and 2.335 and 1.158 and 0.9908 and 0.6649 and 1.927 and 1.207 | IRF7, Type I IFN signalling array raw data [2, 3]: 6.802 and 6.586 and 3.986 and 5.798 and 5.443 and 4.601 and 5.372 and 4.2831 and 3.547 | IRF9, Type I IFN signalling array raw data [2, 3]: 2.19 and 2.335 and 0.975 and 2.229 and 2.461 and 1.8963 and 1.69 and 1.214 and 1.521 | ISG15, Type I IFN signalling array raw data [2, 3]: 3.986 and 3.922 and 0.692 and 4.262 and 5.477 and 7.495 and 2.508 and 1.711 and 2.311 | ISG20, Type I IFN signalling array raw data [2, 3]: 2.62 and 3.224 and 2.385 and 3.3 and 3.623 and 2.618 and 2.595 and 4.036 and 2.585 | MX1, Type I IFN signalling array raw data [2, 3]: 3.107 and 4.405 and 1.261 and 5.21 and 5.062 and 3.692 and 3.866 and 4.591 and 2.854 | MX2, Type I IFN signalling array raw data [2, 3]: 4.125 and 4.0818 and 1.607 and 3.741 and 5.0213 and 4.032 and 3.318 and 2.653 and 2.691 | MYD88, Type I IFN signalling array raw data [2, 3]: 3.738 and 3.075 and 2.51 and 2.925 and 2.927 and 2.376 and 3.074 and 1.908 and 3.454 | NMI, Type I IFN signalling array raw data [2, 3]: 2.143 and 1.85 and 1.491 and 1.973 and 3.716 and 1.264 and 1.346 and 2.497 and 2.32 | OAS1, Type I IFN signalling array raw data [2, 3]: 4.424 and 3.836 and 1.737 and 5.327 and 4.793 and 3.413 and 3.498 and 2.187 and 2.863 | OAS2, Type I IFN signalling array raw data [2, 3]: 4.608 and 3.615 and 1.642 and 3.798 and 4.119 and 3.655 and 2.504 and 2.941 and 2.821 | PML, Type I IFN signalling array raw data [2, 3]: 4.552 and 5.075 and 2.988 and 4.3611 and 4.177 and 3.436 and 3.3349 and 3.807 and 3.407 | SOCS1, Type I IFN signalling array raw data [2, 3]: 3.578 and 4.266 and 3.582 and 3.8466 and 3.6323 and 2.7 and 3.416 and 2.793 and 2.573 | STAT1, Type I IFN signalling array raw data [2, 3]: 0.977 and -0.7577 and -0.7275 and 0.7898 and -0.2011 and 0.5637 and -1.166 and 0.2201 and -0.8389 | STAT2, Type I IFN signalling array raw data [2, 3]: 3.968 and 3.159 and 2.8038 and 5.573 and 3.712 and 3.001 and 2.882 and 3.307 and 2.683 | STAT3, Type I IFN signalling array raw data [2, 3]: 6.676 and 4.39 and 1.897 and 3.494 and 2.053 and 1.773 and 1.353 and 3.435 and 1.673 | TAP1, Type I IFN signalling array raw data [2, 3]: 2.3591 and 1.9257 and 1.563 and 2.7124 and 1.578 and 1.336 and 0.8182 and 1.844 and 1.137 | TNFSF10, Type I IFN signalling array raw data [2, 3]: 3.902 and 3.285 and 2.141 and 3.031 and 3.789 and 2.995 and 3.1028 and 5.015 and 2.882
